Source: US6124308A, “Optically active phenyl pyrimidine derivatives as analgesic agent” (priority 1995, dated 2000)
Structures can show the parent of a compound that is named as a salt. Where two headings read alike, the source gives them in different places.

Experiments:
[1] = Melting profile / stability of salts (Mettler hotstage and DSC); type: physicochemical; conditions: for Hotstage/DSC results indicates (racemisation on heating) / temperature of racemisation indicated by hotstage/DSC: 10° C./min
Protocol: Events on heating were monitored visually using a Mettler hotstage and a microscope. A DSC scan was then used to confirm the observed events and identify the type of event. The DSC experiments were performed using the Perkin Elmer DSC-7 system with a TAC7/DX recorder. In order to capture as many events as possible a scan irate of 10° C./min and 1-2 mg sample size was used. DSC sweeps between 40° C. and 400° C. or from and to 50° C. outside any event observed on the hot stage were carried out on one or two samples. The samples and reference (air) were placed in 50 μl aluminium pans with holes.

[2] = Solubility of salts in water and pH (drug addition method); type: physicochemical; conditions: water, room temperature
Protocol: The solubility was determined by means of the drug addition method. At room temperature the drug was added to 0.25 ml deionised water. The sample was diluted to 2 ml for pH determination. A single determination was carried out.

[3] = test system: hind-limb extension (maximal electroshock seizure); experiment: Maximal electroshock test, rats, i.p., duration of action; type: in vivo, rat; conditions: for ED50: Rattus norvegicus, ip; for ED50 (95% limits): i.p.
[4] = test system: maximal electroshock seizure; experiment: Maximal electroshock test, rats, i.v., stronger current (200 mA); type: in vivo; conditions: Rattus norvegicus, iv, 1 h
Excerpt: A stronger current (200 mA) was used compared with that (20 mA) used in the other procedures.

[5] = test system: maximal electroshock seizure; experiment: Maximal electroshock test, mice, different routes of administration; type: in vivo, mouse; conditions: Mus musculus, mice, 1 hour, read-out: ED50 (95% limits)
[6] = test system: PGE2-induced acute hyperalgesia; experiment: Effects on the development of PGE2-induced acute hyperalgesia (paw pressure); type: in vivo, rat; conditions: 1 h before PGE2 (100 ng), n=5
Protocol: Effects on the development of PGE2 -induced acute hyperalgesia
Reaction times to paw pressure were measured 3 h after PGE2 injection. Ataxia was scored at the same time by observation of the rats placed in an arena.

[7] = target: T1, rat type IIA sodium channels (Rattus norvegicus, UniProt P04775); experiment: Recombinant rat type IIA sodium channels in chinese hamster ovary cells, whole-cell recording; type: cell-based; conditions: for IC50: IC50 (inhibition of Na+ currents)
T1 construct: no beta subunit mentioned
Excerpt: The IC50 's at two different holding potentials (Vh) were as follows: […]

[8] = test system: veratrine-evoked glutamate release from rat brain slices; experiment: Inhibition of veratrine-evoked glutamate release; type: cell-based
[9] = test system: whole-cell sodium currents in cultured rat hippocampal neurones; experiment: Whole-cell sodium currents in cultured embryonic rat hippocampal neurones, patch-clamp; type: cell-based; conditions: for IC50: 20 msec pulses to -10 mV from holding potential -60 mV, read-out: IC50 (reduction of peak sodium current); for reduction of peak sodium current: holding potential -60 mV
Excerpt: (b) Cultured embryonic rat hippocampal neurones
Sodium currents were elicited by the application of 20 msec dipolarisng pulses, thereby lowering membrane potential to -10 mV from a holding potential of -60 mV.

rat liver DHFR = target: T2, rat liver DHFR (Rattus norvegicus, UniProt Q920D2); experiment: Activity against dihydrofolate reductase (DHFR), spectrophotometric assay; type: biochemical; conditions: at 100 μM
T2 construct: rat liver DHFR; from tissue; host or cells: rat liver
T2 sequence (Q920D2 1-187): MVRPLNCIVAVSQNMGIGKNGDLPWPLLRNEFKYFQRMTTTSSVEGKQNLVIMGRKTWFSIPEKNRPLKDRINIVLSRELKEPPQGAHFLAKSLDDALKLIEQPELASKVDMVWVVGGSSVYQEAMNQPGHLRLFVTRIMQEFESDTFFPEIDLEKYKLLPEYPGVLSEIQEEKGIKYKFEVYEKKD

Half-life in male rats = type: in vivo, rat
[10] = test system: striatal dopamine in MPTP injected C57B1/6 mice; experiment: MPTP induced neurotoxic model, striatal dopamine levels; type: in vivo, mouse
Protocol: Six-week old male C57B1/6 mice (Japan SLC Co., Hamamatu) were housed ten per case in a temperature-controlled room under a 12-hours light/12-hours dark cycle with free access to food and water.
Mice received i.p. injections of the R(-) enantiomer and the S(+) enantiomer (30 mg/kg) in olive oil starting 12 hours before MPTP injection and every 12 hours for the next 5-injections. Control mice received olive oil only.
Mice receive s.c. injection of MPTP-HCl (40 mg of free base per kg; Research Biochemicals) in saline. Control mice received saline only.
HPLC with electrochemical detection was used to measure striatal levels of dopamine (J.C. Garcia': Journal of Chromatography B. 656 (1994) 77-80).
Seven days after the MPTP injection, mice ([…]) were killed and striata were dissected out, immediately frozen, and stored at -80° C. until analysis. On the day of the assay, tissue samples were sonicated in 10 vol(wt/vol) of 0.1M perchloric acid /1.9 mM sodium hydrogen sulfite containing 1.6μg/ml 3,4-dihydroxybenzylamine hydrobromide(Sigma) as an internal standard. After centrifugation (2,800× g for 10 min at room temperature) and filtration (0.5 μm; Millipore membrane filter), 10 μl of supernatant was injected onto an Inertsil ODS3 column (4.6×250 mm; GL Science, Tokyo). The mobile phase consisted of 88% 115 mM NaH2 PO4 /0.178 mM Na2 EDTA /0.92 mM 1-octanesulfonic acid (pH=2.6) solution and 12% ethanol. F low rate was 1.0 ml/min. Peaks were detected by a Shimazu electrochemical detector LECD-6A(700 mV).

T1 sequence (P04775 whole entry): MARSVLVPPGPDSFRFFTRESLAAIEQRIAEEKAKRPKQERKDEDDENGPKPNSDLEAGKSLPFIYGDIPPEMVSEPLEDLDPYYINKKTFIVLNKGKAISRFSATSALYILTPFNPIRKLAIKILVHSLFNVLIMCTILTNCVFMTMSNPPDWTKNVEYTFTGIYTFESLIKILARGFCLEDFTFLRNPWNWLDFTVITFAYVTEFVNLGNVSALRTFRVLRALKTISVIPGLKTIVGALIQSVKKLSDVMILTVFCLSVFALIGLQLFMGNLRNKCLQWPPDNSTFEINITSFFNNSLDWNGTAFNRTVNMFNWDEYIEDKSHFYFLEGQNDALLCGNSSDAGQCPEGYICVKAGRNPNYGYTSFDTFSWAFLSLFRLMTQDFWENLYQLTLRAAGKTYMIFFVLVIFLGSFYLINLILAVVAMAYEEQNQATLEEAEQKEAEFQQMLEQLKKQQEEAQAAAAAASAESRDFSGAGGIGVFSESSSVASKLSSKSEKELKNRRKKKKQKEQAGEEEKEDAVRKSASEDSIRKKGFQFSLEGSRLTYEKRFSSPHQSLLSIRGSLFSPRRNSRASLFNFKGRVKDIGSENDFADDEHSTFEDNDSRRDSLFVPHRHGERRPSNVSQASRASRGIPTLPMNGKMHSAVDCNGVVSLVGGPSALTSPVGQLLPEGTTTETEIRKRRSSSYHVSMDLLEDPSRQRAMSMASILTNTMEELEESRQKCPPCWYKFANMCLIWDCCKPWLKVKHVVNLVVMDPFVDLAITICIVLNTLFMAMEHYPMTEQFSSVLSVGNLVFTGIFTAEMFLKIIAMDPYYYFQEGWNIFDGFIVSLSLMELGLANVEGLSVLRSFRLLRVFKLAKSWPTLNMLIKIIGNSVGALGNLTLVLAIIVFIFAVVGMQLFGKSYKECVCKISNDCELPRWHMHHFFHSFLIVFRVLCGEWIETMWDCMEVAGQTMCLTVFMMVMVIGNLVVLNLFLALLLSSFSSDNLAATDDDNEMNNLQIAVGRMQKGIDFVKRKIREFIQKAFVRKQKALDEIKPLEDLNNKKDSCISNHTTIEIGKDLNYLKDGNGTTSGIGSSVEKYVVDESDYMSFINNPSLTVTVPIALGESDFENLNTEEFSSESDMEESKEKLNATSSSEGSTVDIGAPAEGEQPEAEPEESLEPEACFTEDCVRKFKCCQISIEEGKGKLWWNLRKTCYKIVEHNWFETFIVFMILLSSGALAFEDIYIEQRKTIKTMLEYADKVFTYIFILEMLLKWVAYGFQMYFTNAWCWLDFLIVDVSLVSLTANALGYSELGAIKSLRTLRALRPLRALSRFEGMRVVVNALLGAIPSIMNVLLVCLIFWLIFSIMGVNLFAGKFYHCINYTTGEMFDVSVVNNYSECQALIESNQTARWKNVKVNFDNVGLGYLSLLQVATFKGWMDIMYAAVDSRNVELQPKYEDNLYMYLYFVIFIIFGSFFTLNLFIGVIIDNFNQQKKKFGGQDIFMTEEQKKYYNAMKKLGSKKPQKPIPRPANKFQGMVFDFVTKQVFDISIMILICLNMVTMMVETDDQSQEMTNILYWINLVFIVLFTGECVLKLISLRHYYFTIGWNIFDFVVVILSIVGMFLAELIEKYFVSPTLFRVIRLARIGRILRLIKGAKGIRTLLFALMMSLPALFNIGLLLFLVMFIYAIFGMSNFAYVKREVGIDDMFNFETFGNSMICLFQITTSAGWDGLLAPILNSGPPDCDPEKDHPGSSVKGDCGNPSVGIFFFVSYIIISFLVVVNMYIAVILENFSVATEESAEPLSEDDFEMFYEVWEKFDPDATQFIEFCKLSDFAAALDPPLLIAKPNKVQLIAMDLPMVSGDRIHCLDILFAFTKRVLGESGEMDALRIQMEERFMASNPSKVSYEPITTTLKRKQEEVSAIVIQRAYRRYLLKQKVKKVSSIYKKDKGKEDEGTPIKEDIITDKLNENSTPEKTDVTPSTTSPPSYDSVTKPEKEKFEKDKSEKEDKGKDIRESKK

Structure (SMILES): Nc1nc(N)c(-c2cccc(Cl)c2Cl)c(CF)n1 [(L)-Lactate]
- Hotstage/DSC results indicates (racemisation on heating) [1]: Racemisation
- temperature of racemisation indicated by hotstage/DSC [1]: 143 °C
- pH of the solution [2]: 3.43
- solubility of four salts [2]: less than 1 mg/ml

Structure (SMILES): Nc1nc(N)c(-c2cccc(Cl)c2Cl)c(CF)n1 [Acetate]
- Hotstage/DSC results indicates (racemisation on heating) [1]: Racemisation
- temperature of racemisation indicated by hotstage/DSC [1]: ~200 °C
- pH of the solution [2]: 5.54
- solubility ([2]; read-out: solubility of four salts): < 1 mg/mL

Structure (SMILES): Nc1nc(N)c(-c2cccc(Cl)c2Cl)c(CF)n1 [Benzenesulphonate]
- stability profile suggested by the tests [1]: could provide good stability
- pH of the solution [2]: 2.43

Structure (SMILES): Nc1nc(N)c(-c2cccc(Cl)c2Cl)c(CF)n1 [Benzoate]
- Hotstage/DSC results indicates (racemisation on heating) [1]: unstable
- pH of the solution [2]: 4.17
- solubility of four salts [2]: less than 1 mg/ml

Structure (SMILES): Nc1nc(N)c(-c2cccc(Cl)c2Cl)c(CF)n1 [Citrate]
- stability profile suggested by the tests [1]: could provide good stability
- pH of the solution [2]: 3.99

Structure (SMILES): Nc1nc(N)c(-c2cccc(Cl)c2Cl)c(CF)n1 [Fumarate]
- Hotstage/DSC results indicates (racemisation on heating) [1]: Racemisation
- temperature of racemisation indicated by hotstage/DSC [1]: 127 °C
- pH of the solution [2]: 3.04

Structure (SMILES): Nc1nc(N)c(-c2cccc(Cl)c2Cl)c(CF)n1 [HCl, R(-)-2,4-diamino-5-(2,3-dichlorophenyl)-6-fluoromethyl Pyrimidine Monohydrochloride]
- Hotstage/DSC results indicates (racemisation on heating) ([1]; Monohydrochloride): Racemisation
- temperature of racemisation indicated by hotstage/DSC ([1]; Monohydrochloride): 243 °C
- pH of the solution ([2]; Monohydrochloride): 3.61
- solubility ([2]; solubility of the equivalent base over or around 25 mg/ml): ~25 mg/mL

Structure (SMILES): Nc1nc(N)c(-c2cccc(Cl)c2Cl)c(CF)n1 [Isethionate, R(-)-2,4-diamino-5-(2,3-dichlorophenyl)-6-fluoromethyl Pyrimidine Isethionate]
- pH of the solution [2]: 1.67
- solubility of the equivalent base over or around 25 mg/ml [2]: around 25 mg/ml
- ED50 ([3]; 2 h, read-out: ED50 at 2 hrs (isethionate salt versus base), i.p., 2 hrs, calculated as the base, p<0.05): 1.8 mg/kg
- ED50 [4]: 1.5 mg/kg

Structure (SMILES): Nc1nnc(-c2cccc(Cl)c2Cl)c(N)n1 [Lamotrigine, 3,5-diamino-6-(2,3-dichlorophenyl)-1,2,4-triazine, reference compound]
- ED50 ([5]; ip, i.p.): 2.3 mg/kg
- ED50 ([5]; po, p.o.): 3.3 mg/kg
- ED50 ([5]; sc, s.c.): 1.8 mg/kg
- ED50 ([3]; rats, 0.5 hours, read-out: ED50 (95% limits)): 2.7 mg/kg
- ED50 ([3]; rats, 1 hour, read-out: ED50 (95% limits)): 3.3 mg/kg
- ED50 ([3]; rats, 2 hours, read-out: ED50 (95% limits)): 2.7 mg/kg
- ED50 ([3]; rats, 4 hours, read-out: ED50 (95% limits)): 2.3 mg/kg
- ED50 ([3]; rats, 8 hours, read-out: ED50 (95% limits)): 4.8 mg/kg
- ED50 ([3]; rats, 24 hours, read-out: ED50 (95% limits)): 7.1 mg/kg
- ED50 ([6]; Rattus norvegicus, po, read-out: Analgesia ED50 (95% limits)): 34.8 mg/kg
- IC50 ([7]; Vh = -60 mV): 98 µM
- IC50 ([7]; Vh = -90 mV): 413 µM
- inhibition of Na+ currents ([7]; R(-)enantiomer 1-500 μM): inhibition of Na^+ currents in a concentration-dependent and voltage-dependent manner
- ED50 [4]: 2.5 mg/kg
- IC50 ([8]; Rattus norvegicus): 21 µM
- IC50 ([9]; Rattus norvegicus, Hippocampal neurone): 16 µM
- reduction of peak sodium current [9]: concentration-dependent reduction of peak sodium current

Structure (SMILES): Nc1nc(N)c(-c2cccc(Cl)c2Cl)c(CF)n1 [Malonate]
- stability profile suggested by the tests [1]: could provide good stability
- pH of the solution [2]: 3.2

Structure (SMILES): Nc1nc(N)c(-c2cccc(Cl)c2Cl)c(CF)n1 [Methanesulphonate, R(-)-2,4-diamino-5-(2,3-dichlorophenyl)-6-fluoromethyl Pyrimidine Methanesulphonate]
- stability profile suggested by the tests [1]: could provide good stability
- Hotstage/DSC results indicates (racemisation on heating) [1]: Racemisation
- temperature of racemisation indicated by hotstage/DSC [1]: 240 °C
- pH of the solution [2]: 3.33
- solubility of the equivalent base over or around 25 mg/ml [2]: around 25 mg/ml

Structure (SMILES): Nc1nc(N)c(-c2cccc(Cl)c2Cl)c(CF)n1 [Naphthalenedisulphonate]
- stability profile suggested by the tests [1]: could provide good stability
- solubility of four salts [2]: less than 1 mg/ml

Structure (SMILES): Nc1nc(N)c(-c2cccc(Cl)c2Cl)c(CF)n1 [Phosphate]
- stability profile suggested by the tests [1]: could provide good stability
- pH of the solution [2]: 2.34
- solubility of the equivalent base over or around 25 mg/ml [2]: around 25 mg/ml

Structure (SMILES): Nc1nc(N)c(-c2cccc(Cl)c2Cl)c(CF)n1 [S(+)enantiomer, S(+)-2,4-diamino-5-(2,3-dichlorophenyl)-6-fluoromethyl pyrimidine, reference compound]
- ED50 (95% limits) ([3]; rats, 0.5 hours, 30 min): 17.6 (11.6-26.4) mg/kg
- ED50 (95% limits) ([3]; rats, 1 hour, 60 min): 19.0 (12.7-28.5) mg/kg
- ED50 (95% limits) ([3]; rats, 2 hours, 120 min): 30.7 (20.9-45.3) mg/kg
- ED50 (95% limits) ([3]; rats, 4 hours, 240 min): 87.3 (47.7-168) mg/kg
- Analgesia ED50 (95% limits) ([6]; p.o.): 50.1 (39.2-70.5) mg/kg
- inhibition of rat liver DHFR (rat liver DHFR): 33%
- half-life (t1/2) (Half-life in male rats): 3.1 h
- inhibition of veratrine-evoked glutamate release ([8]; at 10 μM): 0%
- IC50 [9]: 20 µM
- reduction of peak sodium current [9]: concentration-dependent reduction of peak sodium current
- % protection ([10]; 30 mg/kg i.p. 6 times, MPTP 40 mg/kg s.c.): 20.3%
- Dopamine content in the striatum ([10]; 30 mg/kg i.p. 6 times, MPTP 40 mg/kg s.c., day 7): 7.99 ± 1.55 μg/g wet tissue
- % mortality ([10]; 30 mg/kg i.p., day -1 to 7): 0%

Structure (SMILES): Nc1nc(N)c(-c2cccc(Cl)c2Cl)c(CF)n1 [Succinate]
- Hotstage/DSC results indicates (racemisation on heating) [1]: Racemisation
- temperature of racemisation indicated by hotstage/DSC [1]: 81 °C
- pH of the solution [2]: 4.09

Structure (SMILES): Nc1nc(N)c(-c2cccc(Cl)c2Cl)c(CF)n1 [Sulphate]
- stability profile suggested by the tests [1]: could provide good stability
- Hotstage/DSC results indicates (racemisation on heating) [1]: Racemisation
- temperature of racemisation indicated by hotstage/DSC [1]: 194 °C
- pH of the solution [2]: 1.92
- solubility of the equivalent base over or around 25 mg/ml [2]: around 25 mg/ml

Structure (SMILES): Nc1nc(N)c(-c2cccc(Cl)c2Cl)c(CF)n1 [Tartrate]
- stability profile suggested by the tests [1]: could provide good stability
- pH of the solution [2]: 3.48

Structure (SMILES): Nc1nc(N)c(-c2cccc(Cl)c2Cl)c(CF)n1 [Toluenesulphonate]
- stability profile suggested by the tests [1]: could provide good stability
